Key:
[1] = test system: d-galactosamine-induced acute hepatitis; assay: d-galactosamine-induced acute hepatitis in rats, serum GOT/GPT (Embodiment 6, silymarin and guanine positive controls); type: in vivo
Experimental: (§1) Rats are randomly divided, with six rats in each group. The animals fasted for 24 hr before the experiment. In the study, normal and d-galactosamine (Gal) groups are orally given with distilled water, testing groups are orally given with 1 g/kg of the test articles (JM, BMEC-1 or BMEC-101 from different processes) dissolving in distilled water, and rats in positive control group are orally administrated with silymarin (200 mg/kg) and guanine (300 mg/kg). One hour later, each group is i.p. with d-galactosamine (400 mg/kg), and the normal group is i.p. with saline. Four and eight hours after d-galactosamine injection, the same dosages are administrated again. Twenty-four hours after d-galactosamine injection, the animals are anesthetized with ether, and the blood is collected from the carotid artery. The serum is separated and stands still at room temperature for 1 hr, and centrifuged (Backman centrifuge, GS-6R, 3000 rpm) for 10 mins. The activities of rat serum GOT and GPT are measured.

[2] = test system: d-galactosamine-induced liver damage; assay: Histopathological sections of liver of d-galactosamine-induced acute hepatitis animals; type: in vivo, rats; details: 300 mg/kg
Experimental: as §1
After blood is collected, the liver of the acute hepatitis animal induced by d-galactosamine is separated, and liver tissue around 0.5 cm^3 in each folium is taken out. Those tissues are fixed in 10% neutral formalin for 1 to 2 weeks, then dehydrated and paraffin embedded by the dehydration and wax-exudation device, and cut into 4 to 5 μm liver slices by rotary microtome. The slices are stained with Haematoxylin and Eosin, and the pathological patterns are observed under an optical microscope.

[3] = test system: d-galactosamine-induced acute hepatitis; assay: d-galactosamine-induced acute hepatitis in rats, serum GOT/GPT (Embodiment 5, guanine positive control); type: in vivo; details: for reduction of sGOT value / reduction of sGPT value: vs d-galactosamine group
Experimental: Male rats are randomly divided, with five rats in the individual group and 200±20 g of each. In the study, normal and d-galactosamine (Gal) groups are orally given with distilled water, testing groups are orally given with test articles (JM or BMEC-1 from different processes) dissolving in distilled water, positive control group is orally given with guanine (300 mg/kg), and each administration dosage is 10 ml/kg.
Half-hour later, each group is i.p. with d-galactosamine (500 mg/kg) except the normal group. Four and eight hours after d-galactosamine injection, the same dosages are administrated again. Twenty-four hours after d-galactosamine injection, the animals are sacrificed for collecting the blood, and then the serum GOT (Glutamyl Oxaloacetic Transaminase) and GPT (Glutamyl Pyrubic Transaminase) activities are measured by using HITACHI auto-analyzing system (model 7050) with UV method.

[4] = Table 5, oral 300 × 3 mg/kg, Gal 400 mg/kg i.p., mean ± SEM, n = 6
[5] = Table 5 experiment, oral 300×3 mg/kg, vs d-galactosamine group
[6] = Table 2, oral 300 × 3 mg/kg, Gal 500 mg/kg i.p., serum 24 h after Gal, mean ± SEM, n = 5
[7] = Table 2 experiment, positive control, oral 300 × 3 mg/kg
[8] = Table 3, oral 300 × 3 mg/kg, Gal 500 mg/kg i.p., mean ± SEM, n = 5
[9] = Table 3 experiment, oral 300×3 mg/kg
[10] = Table 4 Batch 1, oral 300 × 3 mg/kg, Gal 500 mg/kg i.p., mean ± SEM, n = 5
[11] = Table 4 Batch 1, oral 300×3 mg/kg
[12] = Table 4 Batch 2, oral 300 × 3 mg/kg, Gal 500 mg/kg i.p., mean ± SEM, n = 5
[13] = Table 4 Batch 2, oral 300×3 mg/kg

`Nc1nc2nc[nH]c2c(=O)[nH]1` [guanine] was tested, and the sGOT [1, 4] was 160.7 ± 33.5 U/L, the sGPT [1, 4] was 55.1 ± 19.2 U/L and the “reduction of sGOT value” [1, 5] was 70%. For the same compound, the “reduction of sGPT value” [1, 5] was 79%, the Fibrosis ([2]; liver fibrosis grade) was 1 and the Balloon degeneration ([2]; liver histopathology grade) was 0. It also gave a Bile duct proliferation ([2]; liver histopathology grade) of 1, a Fatty change ([2]; liver histopathology grade) of 1 and an Inflammation ([2]; liver histopathology grade) of 1. It also gave a Mitosis ([2]; liver histopathology grade) of 0, a Necrosis ([2]; liver histopathology grade) of 0 and a sGOT [3, 6] of 980.0 ± 92.5 U/L. For the same compound, the sGPT [3, 6] was 589.6 ± 54.6 U/L, the “reduction of sGOT value” [3, 7] was 24% and the “reduction of sGPT value” [3, 7] was 32%. For the same compound, the sGOT [3, 8] was 954.8 ± 122.1 U/L, the sGPT [3, 8] was 514.4 ± 78.2 U/L and the “reduction of sGOT value” [3, 9] was 45%. For the same compound, the “reduction of sGPT value” [3, 9] was 59%, the sGOT [3, 10] was 1055.6 ± 150.1 U/L and the sGPT [3, 10] was 699.2 ± 103.6 U/L. The “reduction of sGOT value” [3, 11] was 49%, the “reduction of sGPT value” [3, 11] was 41% and the GOT [3, 12] was 1080.0 ± 181.7 U/L. For the same compound, the GPT [3, 12] was 584.0 ± 114.9 U/L, the “reduction of sGOT value” [3, 13] was 42% and the “reduction of sGPT value” [3, 13] was 49%.

From patent US7799353B2, “Pharmaceutical mixture for hepatitis treatment and its preparation method” (Industrial Technology Research Institute, priority 2003, dated 2010)
